The target in one data set is T1, Human CCR3 (Homo sapiens, UniProt P51677).
T1 construct: The cloned CCR3 cDNA was constructed with pcDNA3 vector and transfected into a K562 cell line; expressed in transfected cells
T1 sequence (P51677 1-355): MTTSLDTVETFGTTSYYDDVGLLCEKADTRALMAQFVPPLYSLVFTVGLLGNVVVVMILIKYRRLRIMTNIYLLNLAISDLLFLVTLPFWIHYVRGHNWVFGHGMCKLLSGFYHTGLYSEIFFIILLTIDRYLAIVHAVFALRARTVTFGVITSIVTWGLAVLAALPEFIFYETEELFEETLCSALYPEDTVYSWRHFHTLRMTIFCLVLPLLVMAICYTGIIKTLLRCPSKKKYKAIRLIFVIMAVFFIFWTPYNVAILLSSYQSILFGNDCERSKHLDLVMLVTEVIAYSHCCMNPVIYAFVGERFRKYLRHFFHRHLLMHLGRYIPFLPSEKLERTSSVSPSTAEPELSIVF
In words: Calcium mobilization assay (Ca2+), eotaxin-stimulated human CCR3-transformed K562 cells. The data set is classed as cell-based. The conditions noted are these: compounds of about 40 to 90% purity, read-out: Activity grade IC50. Here is the method:
• Human CCR3-transformed K562 cells were used. The cloned CCR3 cDNA was constructed with pcDNA3 vector and transfected into a K562 cell line. The human CCR3-transformed K562 cells were maintained in RPMI-1640 (Cat.#22400-089, Life Technologies) supplemented with 10% FCS (Cat.#A-1115-L, Hyclone), 55 μM 2-mercaptoethanol (Cat.#21985-023, Life Technologies), 1 mM sodium pyruvate (Cat.#11360-070, Life Technologies), 100 units/ml of penicillin G and 100 μg/ml of streptomycin (Cat.#15140-122, Life Technologies), and 0.4 mg/ml of Geneticin (Cat.#10131-035, Life Technologies) (hereinafter called “culture medium”). Before the receptor binding assay, cells were pretreated with 5 mM sodium butyrate (Cat.#193-01522, Wako)-containing the culture medium (2×10^5 cells/ml) for 20-24 hours to increase the expression of CCR3. (2) Receptor Binding Assay • Butyrate-pretreated cells, suspended in binding buffer (25 mM HEPES pH 7.6, 1 mM CaCl2, 5 mM MgCl2, 0.5% BSA, 0.1% NaN3) at a cell density of 2×10^6 cells/ml, were added into 60 μl/well in the 96-well round bottom polypropylene plate (Cat.#3365, Costar). Compounds, diluted with the binding buffer (4-times higher concentration of the final concentration), were added into 30 μl/well in the polypropylene plate. [^125I]-labeled human eotaxin (Cat.#IM290, Amersham Pharmacia Biotech), diluted with the binding buffer at the concentration of 0.4 nM (final concentration; 0.1 nM), was added into 30 μl/well in the polypropylene plate. Total 120 μl/well of binding reaction mixture (60 μl/well of cell suspension, 30 μl/well of compound solution, and 30 μl/well of [^125I]-labeled eotaxin) were incubated in the polypropylene plate for 1 hour at room temperature after the incubation, 100 μl/well of the reaction mixture was transferred to a filtration plate (Cat.#MAFB-N0B, Millipore), and washed with the washing buffer (25 mM HEPES pH 7.6, 1 mM CaCl2, 5 mM MgCl2, 0.5% BSA, 0.1% NaN3, 0.5 M NaCl) twice. The 96-well filtration plate was pretreated with 100 μl/well of 0.5% polyethylenimine (Cat.#P-3143, Sigma) for 2-4 hours at room temperature and washed with the washing buffer twice before use. The non-specific binding was determined by parallel incubation in the presence of 500 nM of non-labeled eotaxin (Cat.#23209, Genzyme Techne). The radioactivities remained on the filter were measured by liquid scintillation counter (TopCount™, Packard) after an addition of 45 μl/well of scintillant (Microscint20, Cat.#6013621, Packard). The inhibition percent at each concentration of compound was calculated, and IC50 values were determined from the inhibition curve. [Determination of IC50 Values of Compounds in Calcium Mobilization Assay] (1) Cell • Human CCR3-transformed K562 cells were used. The human CCR3-transformed K562 cells were maintained in RPMI-1640 supplemented with 10% FCS, 55 μM 2-mercaptoethanol (Cat.#21985-023, Life Technologies), 1 mM sodium pyruvate, 100 units/ml of penicillin G and 100 μg/ml of streptomycin, and 0.4 mg/ml of Geneticin. Before the calcium mobilization assay, cells were pretreated with 5 mM sodium butyrate-containing the culture medium (2×10^5 cells/ml) for 20-24 hours to increase the expression of CCR3. (2) Calcium Mobilization Assay • Butyrate-pretreated cells were loaded with Fluo-3AM (Cat.#F-1242, Molecular Probes) in loading buffer (Hanks' solution Cat.#05906 Nissui, 20 mM HEPES pH 7.6, 0.1% BSA, 1 mM probenecid Cat.#P-8761 Sigma, 1 μM Fluo-3AM, 0.01% pluronic F-127 Cat.#P-6866 Molecular Probes) at a cell density of 1×10^7 cells/ml. Then, cells were washed with calcium assay buffer (Hanks' solution Cat.#05906 Nissui, 20 mM HEPES pH 7.6, 0.1% BSA, 1 mM Probenecid Cat.#P-8761 Sigma). The cell suspension (3.3×10^6 cells/ml) was added into 60 μl/well in the 96-well clear bottom black plate (Cat.#3904, Costar). Compounds, diluted (5-times concentration of the final concentration) with the calcium assay buffer, were added into 20 μl/well in the plate 10 minutes before assay. […]
In general terms: A change in cytosolic calcium serves as a functional read-out for many receptors and channels.

Structures can show the parent of a compound that is named as a salt. Some results are limits rather than exact numbers.

In general, melting point refers to the temperature of the solid-liquid transition. Consider `N#Cc1ccc(Oc2cc(Cl)cc(Cl)c2)c(S(=O)(=O)C2CCNCC2)c1` (as salt: hydrochloride) [Example 2-1, 4-(3,5-Dichloro-phenoxy)-3-(piperidine-4-sulfonyl)-benzonitrile], for which the melting point was 220 to 226 °C (dec.).

For the compound `O=[N+]([O-])c1ccc(Sc2cc(Cl)cc(Cl)c2)c(S(=O)(=O)N[C@H]2CN3CCC2CC3)c1` (stereo in doubt), the melting point turned out to be 256 °C.

As usually defined, the IC50 is the midpoint of a concentration-inhibition curve. For `CC(C)(C)[Si](C)(C)O[C@H]1CN(C2CCN(S(=O)(=O)c3cc(C#N)ccc3Oc3cc(Cl)cc(Cl)c3)CC2)C[C@@H]1O` [Example 1-14], the concentration for half-maximal inhibition (IC50) at Human CCR3 lay in the range of 0.1 to 0.5 µM.

`N#Cc1ccc(Oc2cc(Cl)cc(Cl)c2)c(S(=O)(=O)N2CC[C@H](N(CCO)CCO)C2)c1` [Example 1-15] displayed a melting point of 153 to 154 °C. For the same compound, the IC50 at Human CCR3 lay within 0.1 to 0.5 µM.

As to `N#Cc1ccc(Oc2cc(Cl)cc(Cl)c2)c(S(=O)(=O)N[C@@H]2CC3OC3C[C@@H]2N)c1` (stereo partly drawn) [Example 1-17], the melting point was 165 to 182 °C (dec.). For the same compound, the IC50 at Human CCR3 was above 0.5 µM.

`N#Cc1ccc(Oc2cc(Cl)cc(Cl)c2)c(S(=O)(=O)N2CC[C@H](N3C[C@H](O)[C@@H](O)C3)C2)c1` [Example 1-18]: the half-inhibitory concentration (IC50) at Human CCR3 was in the range of 0.1 to 0.5 µM.

On to `N#Cc1ccc(Oc2cc(Cl)cc(Cl)c2)c(S(=O)(=O)N[C@@H]2C[C@H](O)[C@@H](O)C[C@@H]2N)c1` [Example 1-19], for which the IC50 on Human CCR3 is above 0.5 µM.

Turning to `Cl.Cl.N#Cc1ccc(Oc2cc(Cl)cc(Cl)c2)c(S(=O)(=O)N2CCNC(CN)C2)c1` (stereo not drawn) [Example 1-20], the melting point was in the range of 240 to 241 °C. The IC50 on Human CCR3 was above 0.5 µM.

In the case of `CN(C)CCN(C)CCN(C)S(=O)(=O)c1cc(C#N)ccc1Oc1cc(Cl)cc(Cl)c1` [Example 1-23], the IC50 at Human CCR3 lay in the range of 0.1 to 0.5 µM.

Compound `N#Cc1ccc(Oc2cc(Cl)cc(Cl)c2)c(S(=O)(=O)NC2CCCCNC2=O)c1` (stereo not drawn) [Example 1-24] displayed a melting point of 172 to 173 °C. Besides, the half-maximal inhibitory concentration (IC50) at Human CCR3 lay within 0.1 to 0.5 µM.

With `COC(=O)C1CN(C2CCNCC2)CCCN1S(=O)(=O)c1cc(C#N)ccc1Oc1cc(Cl)cc(Cl)c1` (stereo not drawn) [Example 1-25], the IC50 at Human CCR3 lay within 0.1 to 0.5 µM.

Take `O=S(=O)(c1cc(-n2cnnn2)ccc1Oc1cc(Cl)cc(Cl)c1)N1CCNCC1` [Example 1-30]: the IC50 at Human CCR3 is above 0.5 µM.

For `N#Cc1ccc(Oc2cc(Cl)cc(Cl)c2)c(S(=O)(=O)N(CCN2C(=O)CCC2=O)[C@H]2CN3CCC2CC3)c1` [Example 1-38], the IC50 on Human CCR3 was above 0.5 µM.

`CN(C)CC(NS(=O)(=O)c1cc(C#N)ccc1Oc1cc(Cl)cc(Cl)c1)C(=O)O` (stereo not drawn) [Example 1-40] came in with a melting point of 190 °C. The IC50 on Human CCR3 is above 0.5 µM.

In the case of `N#Cc1ccc(Oc2cc(Cl)cc(Cl)c2)c(S(=O)(=O)NC2CN(Cc3ccccc3)CCN(Cc3ccccc3)C2)c1` [Example 1-41], the half-maximal inhibitory concentration (IC50) at Human CCR3 was above 0.5 µM.

In the case of `Cl.N#Cc1ccc(Oc2cc(Cl)cc(Cl)c2)c(S(=O)(=O)C2CCNCC2)c1` [Example 1-47], the melting point was 220 to 226 °C (dec.).

The values above are taken from patent publication US9206186B2, “2-phenoxy- and 2-phenylsulfonamide derivatives with CCR3 antagonistic activity for the treatment of inflammatory or immunological disorders” (AXIKIN PHARMACEUTICALS, INC., priority 2003, dated 2015).
